Reference: paper PMC5200928 (ACS Central Science, 2016)
One block for each compound: values may come before it.

Legend:
[1] = biological target: BRD4 (Homo sapiens, UniProt O60885); assay: BRD4 degradation in HeLa cells, immunoblot; assay type: cell-based
[2] = system: ERK1/2; assay: ERK1/2 degradation in A375 cells, immunoblot; assay type: cell-based; details: for ERK1/2 degradation: then Tz-thalidomide-Me 10 μM 18 h

- BRD4 level ([1]; JQ1-TCO 10 μM 18 h, then Tz-thalidomide-Me 10 μM 18 h): remained unchanged
SMILES: Cc1nnc(-c2ccc(CNC(=O)CCCCCOc3cccc4c3C(=O)N(C3CCC(=O)N(C)C3=O)C4=O)cc2)nn1 (stereo not drawn) [Tz-thalidomide-Me]
- ERK1/2 degradation ([2]; Probe 1 4 h): insignificant degradation of ERK1/2
- ERK1/2 degradation ([2]; Probe 1 4 h, listed as methyl-Tz-thalidomide): reduced ERK1/2 degradation

- BRD4 levels with proteasome inhibitor ([1]; 4-h pretreatment with carfilzomib 1 μM, JQ1-TCO and Tz-thalidomide treatment): BRD4 levels were rescued
SMILES: CC(C)C[C@H](NC(=O)[C@H](CCc1ccccc1)NC(=O)CN1CCOCC1)C(=O)N[C@@H](Cc1ccccc1)C(=O)N[C@@H](CC(C)C)C(=O)[C@@]1(C)CO1 [carfilzomib]
- ERK1/2 degradation with proteasome inhibitor ([2]; 4-h pretreatment with carfilzomib 1 μM, Probe 1 and Tz-thalidomide): ERK1/2 degradation was prevented

SMILES: O=C1CCC(N2C(=O)c3ccccc3C2=O)C(=O)N1 (stereo not drawn) [thalidomide]
- ERK1/2 degradation, competition ([2]; Probe 1 4 h, then untagged thalidomide 10 μM and Tz-thalidomide 1 μM 18 h): degradation of ERK1/2 was suppressed
